Data on 6 molecules can be found in US5602168A, “1-(N'-(arylalkylaminoalkyl)) aminoisoindoles; dopamine receptor subtype specific ligands” (Neurogen Corporation, priority 1995, dated 1997).

The target in one data set is D2 receptor (Chlorocebus aethiops, UniProt P52702). The experiment in a line: D2 receptor binding activity ([3H]-YM 09151-2 displacement). Details: species or system African Green monkey. The conditions noted are these: COS cell pellets with recombinant D2; 0.5 nM 3H-YM 09151-2; nonspecific 1 mM spiperone. As for the experimental part:
(§1) Pellets of COS cells containing recombinantly produced D2 or D3 receptors from African Green monkey were used for the assays. The sample is homogenized in 100 volumes (w/vol) of 0.05M Tris HCl buffer at 4° C. and pH 7.4. The sample is then centrifuged at 30,000×g and resuspended and rehomogenized. The sample is then centrifuged as described and the final tissue sample is frozen until use. The tissue is resuspended 1:20 (wt/vol) in 0.05M Tris HCl buffer containing 100 mM NaCl.
(§2) Incubations are carried out at […] and contain 0.4 ml of tissue sample, 0.5 nM ^3 H-YM 09151-2 and the compound of interest in a total incubation of 1.0 ml. Nonspecific binding is defined as that binding found in the presence of 1 mM spiperone; without further additions, nonspecific binding is less than 20% of total binding. The binding characteristics of examples of this patent for the D2 and D3 receptor subtypes are shown in Table 2 for Rat Striatal Homogenates.

For data set [1], the target named is T1, human dopamine D4 receptor (Homo sapiens, UniProt P21917).
T1 construct: expressed in transfected cells
T1 sequence (P21917 1-419): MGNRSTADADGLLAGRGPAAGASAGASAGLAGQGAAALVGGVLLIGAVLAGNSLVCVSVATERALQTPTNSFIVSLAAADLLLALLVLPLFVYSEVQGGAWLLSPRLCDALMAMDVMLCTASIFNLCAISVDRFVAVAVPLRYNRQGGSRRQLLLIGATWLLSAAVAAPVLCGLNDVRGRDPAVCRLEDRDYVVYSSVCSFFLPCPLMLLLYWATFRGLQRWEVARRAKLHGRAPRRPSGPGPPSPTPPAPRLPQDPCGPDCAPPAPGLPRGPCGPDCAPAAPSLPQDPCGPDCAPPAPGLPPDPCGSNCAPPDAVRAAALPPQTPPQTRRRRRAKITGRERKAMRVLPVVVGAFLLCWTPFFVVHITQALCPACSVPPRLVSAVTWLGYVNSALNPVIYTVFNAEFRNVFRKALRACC
The experiment in a line: D4 receptor binding activity ([3H]YM-09151-2 displacement). The conditions noted are these: human D4 clonal cell lines; 0.1 nM [3H]YM-09151-2; 60 minutes at 25° C.; pH 7.4. The protocol:
Clonal cell lines expressing the human dopamine D4 receptor subtype were harvested in PBS and the cells centrifuged and the pellets stored at -80° C. until used in the binding assay. The pellets were resuspended and the cells lysed at 4° C. in 50 mM Tris pH 7.4 buffer containing 120 mM NaCl, 1 mM EDTA and 5 mM MgCl2. The homogenate is centrifuged at 48000×g for 10 minutes at 4° C. The resulting pellet is resuspended in fresh buffer and centrifuged again. After resuspension of the pellet in fresh buffer a […] aliquot is removed for protein determination. The remaining homogenate is centrifuged as above, the supernatant removed and the pellet stored at 4° C. until needed at which time it is resuspended to a final concentration of […] with 50 mM Tris buffer (pH 7.4) and 120 mM NaCl just prior to use. Incubations were carried out for 60 minutes at 25° C. in the presence of 0.1 nM [^3 H]YM-09151-2. The incubation was terminated by rapid filtration through Whatman GF/C filters and rinsed with 2×4 ml washes of chilled 50 mM Tris (pH 7.4) and 120 mM NaCl. Non-specific binding was determined with 1 mM spiperone and radioactivity determined by counting in an LKB beta counter. Binding parameters were determined by non-linear least squares regression analysis, from which the inhibition constant Ki could be calculated for each test compound. The binding characteristics of some examples of this invention are shown in Table 3 for the dopamine D4 binding assay.

For a further data set, the target named is T2, D3 receptor (Chlorocebus aethiops, UniProt P52703).
T2 construct: expressed in transfected cells; host or cells: COS cells (membrane homogenate)
T2 sequence (P52703 whole entry): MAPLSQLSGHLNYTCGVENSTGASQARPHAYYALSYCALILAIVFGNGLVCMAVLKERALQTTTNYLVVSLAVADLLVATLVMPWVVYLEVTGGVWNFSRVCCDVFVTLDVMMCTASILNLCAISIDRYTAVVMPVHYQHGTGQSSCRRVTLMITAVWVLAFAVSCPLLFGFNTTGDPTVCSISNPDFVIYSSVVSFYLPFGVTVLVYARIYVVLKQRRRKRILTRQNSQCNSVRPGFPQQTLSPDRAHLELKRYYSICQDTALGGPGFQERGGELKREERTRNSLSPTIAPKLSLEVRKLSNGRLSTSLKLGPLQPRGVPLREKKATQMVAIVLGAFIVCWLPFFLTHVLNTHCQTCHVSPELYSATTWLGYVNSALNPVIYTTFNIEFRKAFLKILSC
The experiment in a line: D3 receptor binding activity ([3H]-YM 09151-2 displacement). Also noted: species or system African Green monkey. The conditions noted are these: COS cell pellets with recombinant D3; 0.5 nM 3H-YM 09151-2; nonspecific 1 mM spiperone. As for the experimental part:
as §1, §2

For data set [2] the following is noted: cited from earlier work.
A further data set deals with D2 receptors. The following applies: background statement; cited from earlier work.
In another data set the test system is D1 dopamine receptor. The conditions noted are these: background statement; cited from earlier work.

Read-outs that look alike come from different tables or passages of the source.

Sequence of D2 receptor (P52702 whole entry): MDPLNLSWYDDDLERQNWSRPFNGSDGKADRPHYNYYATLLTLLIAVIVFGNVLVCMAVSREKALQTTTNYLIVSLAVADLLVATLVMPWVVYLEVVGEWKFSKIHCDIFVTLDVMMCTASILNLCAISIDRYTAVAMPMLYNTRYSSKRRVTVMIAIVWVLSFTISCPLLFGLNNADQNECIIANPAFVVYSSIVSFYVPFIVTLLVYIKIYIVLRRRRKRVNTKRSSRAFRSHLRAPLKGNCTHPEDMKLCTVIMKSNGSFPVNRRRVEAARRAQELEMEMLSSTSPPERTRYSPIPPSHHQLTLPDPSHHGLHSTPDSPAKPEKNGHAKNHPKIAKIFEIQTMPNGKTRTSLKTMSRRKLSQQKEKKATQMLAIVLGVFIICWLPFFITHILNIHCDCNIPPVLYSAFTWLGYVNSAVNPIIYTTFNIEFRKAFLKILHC

`c1cnc(N2CCN(CCNC3=NCc4ccccc43)CC2)nc1` [Compound 1]: the Ki – broadly, a dissociation constant, usually derived from enzyme kinetics or from competition with a known ligand – is 2.38 µM at D2 receptor, 0.012 µM in data set [1] and over 100 µM at D3 receptor.
The corresponding values for `c1cnc(N2CCN(CCCNC3=NCc4ccccc43)CC2)nc1` [Compound 2] are 1.42 µM, 0.07 µM and over 100 µM.
For `CN(CCCc1ccccc1)CCNC1=NCc2ccccc21` [Compound 3, 1-(N-[2-{N'-(3-phenylpropyl)-N'-methyl}aminoethyl])aminoisoindole dioxolate], in that order: 1.94 µM, 0.1 µM and over 100 µM.
For the molecule `CN1CCN(C2=Nc3cc(Cl)ccc3Nc3ccccc32)CC1` [clozapine], in data set [2] (versus classical neuroleptics, background statement), the “incidence of extrapyramidal side effects (EPS)” value was “lesser incidence of extrapyramidal side effects (EPS) than classical neuroleptics”.
For the molecule `O=C(CCCN1CCC(O)(c2ccc(Cl)cc2)CC1)c1ccc(F)cc1` [haloperidol], the “binding affinity at D2 receptors” value with D2 receptors was “in the subnanomolar range”. Besides, in the data set on D1 dopamine receptor, the “binding at D1 dopamine receptor” value is listed as “binds relatively weakly”.
Take `CCN1CCCC1CNC(=O)c1cc(S(N)(=O)=O)ccc1OC` (stereo not shown) [sulpiride]: the “incidence of extrapyramidal side effects (EPS)” value in data set [2] (in vivo) was “lesser incidence of extrapyramidal side effects (EPS) than classical neuroleptics”.
